Measurements as given in ChEMBL document CHEMBL1201862, “PubChem BioAssay data set” (2004).
The source made the active and inactive calls.

What was measured:
Prothrombin = Prothrombin (Homo sapiens, UniProt P00734); assay: Thrombin 1536 HTS Dose Response Confirmation. [Related pubchem assays: 1046 (Thrombin 1536 HTS; hits were confirmed in this assay)]; type: functional
[1] = biological target: Sphingosine 1-phosphate receptor 2 (Homo sapiens, UniProt O95136); assay: Dose Response Cell Based Assay for Antagonists of the S1P2 Receptor. [Related pubchem assays: 856, 736 ]; type: functional
Chain of Sphingosine 1-phosphate receptor 2 (O95136 whole entry): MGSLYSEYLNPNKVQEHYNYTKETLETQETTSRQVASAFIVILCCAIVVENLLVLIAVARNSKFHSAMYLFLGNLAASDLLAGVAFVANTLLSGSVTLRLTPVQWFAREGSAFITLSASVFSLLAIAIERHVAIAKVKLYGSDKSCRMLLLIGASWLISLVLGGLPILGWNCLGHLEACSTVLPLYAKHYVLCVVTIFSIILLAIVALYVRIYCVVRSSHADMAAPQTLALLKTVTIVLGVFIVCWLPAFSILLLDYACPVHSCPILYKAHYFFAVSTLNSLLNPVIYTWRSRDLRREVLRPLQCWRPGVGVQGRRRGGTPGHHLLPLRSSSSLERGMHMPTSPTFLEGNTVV

[2] = biological target: Mitogen-activated protein kinase 10 (Homo sapiens, UniProt P53779); assay: Dose response biochemical screening assay for inhibitors of c-Jun N-Terminal Kinase 3 (JNK3). [Related pubchem assays: 746 ]
Chain of Mitogen-activated protein kinase 10 (P53779 whole entry): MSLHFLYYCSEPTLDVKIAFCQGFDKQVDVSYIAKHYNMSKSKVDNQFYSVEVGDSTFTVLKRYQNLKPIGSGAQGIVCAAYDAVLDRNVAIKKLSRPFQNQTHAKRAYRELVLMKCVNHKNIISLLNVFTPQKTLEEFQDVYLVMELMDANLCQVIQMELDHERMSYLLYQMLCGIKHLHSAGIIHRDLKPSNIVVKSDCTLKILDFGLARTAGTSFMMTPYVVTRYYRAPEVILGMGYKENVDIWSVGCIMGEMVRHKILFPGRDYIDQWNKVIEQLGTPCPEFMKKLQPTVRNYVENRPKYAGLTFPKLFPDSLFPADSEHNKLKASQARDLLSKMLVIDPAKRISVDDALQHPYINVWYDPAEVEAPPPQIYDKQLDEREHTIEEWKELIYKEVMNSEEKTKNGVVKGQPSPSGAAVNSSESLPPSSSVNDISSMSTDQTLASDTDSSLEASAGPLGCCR

[3] = biological target: G-protein coupled receptor 183 (Homo sapiens, UniProt P32249); assay: SAR confirmation of small molecule antagonists of the EBI2 receptor via a luminescent beta-arrestin assa.; type: functional
Chain of G-protein coupled receptor 183 (P32249 whole entry): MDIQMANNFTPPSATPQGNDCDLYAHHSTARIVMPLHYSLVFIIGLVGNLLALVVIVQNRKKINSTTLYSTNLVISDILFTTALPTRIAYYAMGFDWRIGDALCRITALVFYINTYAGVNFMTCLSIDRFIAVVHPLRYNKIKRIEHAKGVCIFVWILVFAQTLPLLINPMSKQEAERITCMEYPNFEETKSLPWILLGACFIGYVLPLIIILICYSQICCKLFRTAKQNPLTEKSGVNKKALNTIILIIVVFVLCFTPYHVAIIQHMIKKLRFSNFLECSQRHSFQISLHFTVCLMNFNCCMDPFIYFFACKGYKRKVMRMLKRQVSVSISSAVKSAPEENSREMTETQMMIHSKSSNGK

[4] = biological target: Heat shock protein HSP 90-alpha (Homo sapiens, UniProt P07900); type: functional, organism-based
[5] = cytotoxicity toward NIH3T3 fibroblasts, dose response, counter-screen, cell-based, ATP luminescence, mouse fibroblasts (AID 2010); type: functional;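 also: cells exposed to compound for about 90 hours before reading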
Albumin = Albumin (Bos taurus, UniProt P02769); assay: Counterscreen for inhibitors of T-cell receptor (TCR)-CD3 interaction: Fluorescence-based biochemical high throughput dose response assay to identify inhibitors of T-cell receptor (TCR)-CD3 interaction using a TAMRA-labeled BSA probe.; type: functional
Chain of Albumin (P02769 whole entry): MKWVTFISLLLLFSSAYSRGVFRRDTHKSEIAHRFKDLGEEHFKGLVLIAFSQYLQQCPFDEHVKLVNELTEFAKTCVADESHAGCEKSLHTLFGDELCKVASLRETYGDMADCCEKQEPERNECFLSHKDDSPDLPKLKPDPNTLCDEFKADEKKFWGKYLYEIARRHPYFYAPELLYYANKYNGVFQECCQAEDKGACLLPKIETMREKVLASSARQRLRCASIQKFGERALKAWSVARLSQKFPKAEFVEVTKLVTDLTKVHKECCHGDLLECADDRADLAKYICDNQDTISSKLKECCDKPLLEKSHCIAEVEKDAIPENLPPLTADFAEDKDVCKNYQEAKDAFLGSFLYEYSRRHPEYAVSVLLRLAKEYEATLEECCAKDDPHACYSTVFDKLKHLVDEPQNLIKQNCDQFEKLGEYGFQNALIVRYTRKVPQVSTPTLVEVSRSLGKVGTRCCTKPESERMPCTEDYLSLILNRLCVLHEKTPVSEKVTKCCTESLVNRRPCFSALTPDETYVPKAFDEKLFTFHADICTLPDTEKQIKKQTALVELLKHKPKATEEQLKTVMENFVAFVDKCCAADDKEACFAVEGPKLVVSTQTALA

[6] = inhibitors of intracellular T. cruzi replication, confirmation, NIH3T3 host cells, beta-gal luminescence (AID 2044); type: functional, cell-based;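 also: intracellular parasites grown in NIH/3T3 mouse fibroblasts as host cells; luminescent beta-galactosidase reporter signal from transgenic T. cruzi replicating inside host cells; inhibitors lower the luminescence signal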
[7] = biological target: Disintegrin and metalloproteinase domain-containing protein 17 (Homo sapiens, UniProt P78536); assay: ADAM17 protease inhibitors, dose response, counter-screen for ADAM10 exosite inhibitor project, biochemical, quenched FRET substrate (AID 743253)
Chain of Disintegrin and metalloproteinase domain-containing protein 17 (P78536 whole entry, the tested form may be a part): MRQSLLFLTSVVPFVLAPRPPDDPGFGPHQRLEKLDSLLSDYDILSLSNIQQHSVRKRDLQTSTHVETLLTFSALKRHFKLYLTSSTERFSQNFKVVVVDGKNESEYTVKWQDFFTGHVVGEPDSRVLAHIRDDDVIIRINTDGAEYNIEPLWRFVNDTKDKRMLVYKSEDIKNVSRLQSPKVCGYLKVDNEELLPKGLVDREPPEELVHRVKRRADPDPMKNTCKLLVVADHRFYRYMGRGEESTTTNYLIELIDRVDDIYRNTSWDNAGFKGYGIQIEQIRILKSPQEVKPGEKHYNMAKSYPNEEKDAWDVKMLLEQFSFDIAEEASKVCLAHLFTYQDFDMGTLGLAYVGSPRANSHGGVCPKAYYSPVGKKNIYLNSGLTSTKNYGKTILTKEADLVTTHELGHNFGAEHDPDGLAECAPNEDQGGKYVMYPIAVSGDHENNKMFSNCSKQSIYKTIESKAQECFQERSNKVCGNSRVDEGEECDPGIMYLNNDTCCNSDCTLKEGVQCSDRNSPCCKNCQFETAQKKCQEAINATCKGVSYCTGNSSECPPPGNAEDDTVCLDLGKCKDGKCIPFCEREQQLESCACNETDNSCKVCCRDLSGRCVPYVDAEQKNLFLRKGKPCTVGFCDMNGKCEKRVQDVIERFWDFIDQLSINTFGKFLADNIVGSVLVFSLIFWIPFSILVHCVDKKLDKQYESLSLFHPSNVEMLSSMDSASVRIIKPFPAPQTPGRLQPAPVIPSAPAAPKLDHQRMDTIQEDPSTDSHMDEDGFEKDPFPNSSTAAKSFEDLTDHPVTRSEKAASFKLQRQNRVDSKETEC

[8] = ADAM10 inhibitors, peptide cleavage, dose response, biochemical, QFRET (AID 743254);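 also: ADAM10 enzyme with the DM2 quenched FRET peptide as substrate; EDANS fluorescence gain as the protease cuts the substrate; inhibitor potency against ADAM10 proteolytic activity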
Phospholipase A2 = Phospholipase A2 (Homo sapiens, UniProt P04054); type: functional;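 also: confirmatory dose-response counterscreen on phospholipase A2, testing hits that came from an ultra-high-throughput screen for ATG4B inhibitors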
Chain of Phospholipase A2 (P04054 whole entry): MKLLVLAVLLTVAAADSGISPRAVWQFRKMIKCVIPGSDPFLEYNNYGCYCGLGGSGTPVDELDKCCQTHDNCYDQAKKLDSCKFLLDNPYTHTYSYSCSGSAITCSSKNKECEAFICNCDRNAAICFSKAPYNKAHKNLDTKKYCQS

[9] = biological target: Photoreceptor-specific nuclear receptor (Homo sapiens, UniProt Q9Y5X4); assay: NR2E3 inverse agonists, dose response, biochemical, TR-FRET (AID 463256); type: functional
Chain of Photoreceptor-specific nuclear receptor (Q9Y5X4 whole entry): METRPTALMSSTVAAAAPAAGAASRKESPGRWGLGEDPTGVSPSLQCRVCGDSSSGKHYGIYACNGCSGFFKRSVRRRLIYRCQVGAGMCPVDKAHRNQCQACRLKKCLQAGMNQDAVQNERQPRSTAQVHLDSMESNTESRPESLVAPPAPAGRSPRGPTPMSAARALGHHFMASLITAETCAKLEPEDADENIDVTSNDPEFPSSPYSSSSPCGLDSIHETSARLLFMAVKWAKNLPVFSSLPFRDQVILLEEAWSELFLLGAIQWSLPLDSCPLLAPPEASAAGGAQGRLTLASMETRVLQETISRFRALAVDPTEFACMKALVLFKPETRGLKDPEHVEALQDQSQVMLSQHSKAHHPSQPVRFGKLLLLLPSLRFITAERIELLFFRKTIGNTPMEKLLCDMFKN

Cysteine protease ATG4B = biological target: T1, Cysteine protease ATG4B (Homo sapiens, UniProt Q9Y4P1); type: functional;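 also: Fluorescence-based dose-response confirmation assay measuring inhibition of ATG4B activity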
T1 sequence (Q9Y4P1 whole entry): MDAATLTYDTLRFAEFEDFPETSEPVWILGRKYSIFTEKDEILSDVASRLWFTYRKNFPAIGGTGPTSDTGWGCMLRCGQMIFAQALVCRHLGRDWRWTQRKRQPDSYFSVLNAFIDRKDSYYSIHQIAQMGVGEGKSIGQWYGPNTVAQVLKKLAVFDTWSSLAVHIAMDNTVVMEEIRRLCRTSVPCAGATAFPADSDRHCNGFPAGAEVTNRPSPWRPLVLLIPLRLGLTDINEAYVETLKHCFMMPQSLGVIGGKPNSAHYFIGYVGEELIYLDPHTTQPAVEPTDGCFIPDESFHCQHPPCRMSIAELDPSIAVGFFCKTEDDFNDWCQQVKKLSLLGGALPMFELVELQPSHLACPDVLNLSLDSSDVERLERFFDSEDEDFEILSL

[10] = biological target: Peroxisome proliferator-activated receptor gamma/Nuclear receptor corepressor 2 (Homo sapiens, UniProt P37231+Q9Y618); assay: Counterscreen for NR2E3 inverse agonists: TR-FRET-based biochemical high throughput dose response assay to identify inverse agonists of the interaction between peroxisome proliferator-activated receptor gamma (PPARg) and nuclear receptor co-repressor 2 (NCOR2).; type: functional
[11] = A cytotoxicity screen of small molecule inhibitors of the PhoP region in Salmonella typhi identified in the primary screen. [Related pubchem assays: 1850, 1864, 1985 ]; type: functional

For N#Cc1c(/N=C/c2ccco2)sc2c1CCC2, the IC50 (Prothrombin) was > 50 µM (not active).

With CN(C)/C=N\C(=O)c1sc2cc(C(F)(F)F)cnc2c1-c1cccs1 the IC50 [1] was > 30 µM (not active).

With Nc1nc(-c2ccco2)nn1C(=O)c1ccccc1Cl the IC50 (Prothrombin) was 14 µM (active).

With COCc1cc(C)nc(SCC(=O)Nc2cc3c(cc2C#N)OCO3)c1C#N the IC50 [2] was > 93.1 µM (not active).

For N#Cc1ccccc1S(=O)(=O)N1CCN(C(=O)/C=C/c2ccc(F)cc2)CC1, the IC50 [3] was 0.0482 µM (active).

For COC(=O)c1sccc1NC(=O)c1ccc(OC)cc1, the IC50 [2] was 26.8 µM (not active).

In the case of CCOC(=O)C1=C(NC(=O)Nc2ccc(Cl)c(Cl)c2)Nc2ccccc2N=C1CC, the AC50 [4] is reported as 2.11 µM (active), the EC50 [5] is reported as > 60 µM (not active) and the IC50 (Albumin) is reported as > 94.1 µM (inactive). The EC50 [6] was 2.13 µM (active).

With COC(=O)[C@]12C[C@H](CC(=O)NCCC(C)C)C(=O)N(Cc3cccc4ccccc34)C1=C[C@H](C(C)C)O[C@@H]2C1CC1 the IC50 [7] was > 69.5 µM (inactive) and the IC50 [8] was > 69.5 µM (inactive).

In the case of COc1ccc(CC(=O)NCC2CCCN(Cc3ccc(SC)cc3)C2)cc1 (stereo not drawn), the EC50 (cells) is reported as 0.034 µM (active), the EC50 [5] is reported as > 60 µM (not active) and the EC50 [6] is reported as < 0.1 µM (active).

In the case of O=c1cc(O)[nH]c2c1sc1nc(C(F)(F)F)c3c(c12)CCCCC3, the IC50 (Phospholipase A2) is reported as 9.53 µM (active), the IC50 [9] is reported as > 39.8 µM (not active) and the IC50 (Cysteine protease ATG4B) is reported as 11.1 µM (active). The IC50 [10] was > 39.8 µM (not active).

For CN1CCc2nc(SCC(=O)Nc3cccc(F)c3)c(C#N)c(-c3cccs3)c2C1, the EC50 (cells) was < 0.004 µM (active), the EC50 [5] was > 60 µM (not active) and the EC50 [11] was > 50 µM (active). The EC50 [6] was < 0.1 µM (active).
